From paper PMC12622164, “Endothelial CYB5R1 is a Coenzyme Q reductase that suppresses ferroptosis and atherosclerosis” (Research Square, 2025)

Target: T1, recombinant CYB5R1 (Δ1–29) (Homo sapiens, UniProt Q9UHQ9)
T1 construct: soluble form lacking first 29 residues (membrane anchor); His6-SUMO (Smt3) fusion cleaved by Ulp1; E. coli SoluBL21
T1 sequence (Q9UHQ9 30-305): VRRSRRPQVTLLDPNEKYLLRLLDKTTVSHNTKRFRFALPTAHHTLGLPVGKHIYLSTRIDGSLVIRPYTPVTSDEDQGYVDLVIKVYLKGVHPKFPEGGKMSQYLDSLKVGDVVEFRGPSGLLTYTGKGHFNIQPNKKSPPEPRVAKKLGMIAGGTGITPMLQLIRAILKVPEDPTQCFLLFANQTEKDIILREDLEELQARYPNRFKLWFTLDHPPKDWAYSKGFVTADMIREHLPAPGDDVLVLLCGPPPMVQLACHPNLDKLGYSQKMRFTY
Test: NADH consumption at […] nm
Type: biochemical
Conditions: 200 uM CoQ0; 500 uM NADH; 100 mM Tris-HCl pH 7.4; no CYB5B

COC1=C(OC)C(=O)C(C)=CC1=O [CoQ0, 2,3-dimethoxy-5-methyl-1,4-benzoquinone]
NADH consumption at 340 nm: recombinant CYB5R1 readily reduced CoQ0, a water-soluble derivative of CoQ10
